Laboratory results published in US7166299B2, “Preparation of aqueous clear solution dosage forms with bile acids” (priority 1998, dated 2007).
Where “and” joins values, the source holds several entries; their conditions need not be identical. Equal values may be shown once. Read-outs that look alike come from different tables or passages of the source.

Key:
[1] = Hematic levels of UDCA and glyco UDCA after oral administration of 200 mg UDCA aqueous solution to three healthy men (Example VI); type: in vivo, human
Experimental: The aqueous solution dosage forms, according to this invention, containing 200 mg of ursodeoxycholic acid (UDCA), were prepared according to the method described in the above-described Example III and were administered to three healthy men having normal body weight after fasting. The hematic levels of UDCA and glyco UDCA were evaluated by means of well known chemical methods. After applying buffered serum to sep-pak column, methanol eluate was derivatized with phenacyl bromide at 80° C. for 45 minutes. These phenacyl bromide derivatives were dissolved in acetonitrile in preparation for HPLC. The experimental results of the absorption measured at certain times after dosage administration include the total absorption expressed as the area under the serum concentration-time curve (AUC: μg/mL×hours), the maximum hematic concentration (Cmax; μg/mL) that has been obtained, and the time (Tmax; hour) in which said maximum concentration has been obtained.
The experimental pharmacokinetic tests of the aqueous solution dosage forms according to this invention carried out on men show substantial improvement in AUC, Cmax and Tmax in comparison with the best results from any dosage forms known presently.
Table 4A and Table 4B show plasma concentration of UDCA and GUDCA measured in 3 men over time following on oral administration of the UDCA and GUDCA containing formulations according to Example VI and comparison of results against results of others employing different pharmaceutical formulations of UDCA.

[2] = cited from earlier work
[3] = UDCA levels in human after oral administration of liquid solution or syrup containing 600 mg UDCA per day (five subjects); type: in vivo; design: unit not given here
Excerpt: FIG. 3: Diagram of the mean(n=5) for group I for pharmacokinetic parameters of UDCA in human after an oral administration of liquid formulation of UDCA prepared according to Example IX without bismuth. FIG. 4: Diagram of the mean(n=5) for group II for pharmacokinetic parameters of UDCA in human after an oral administration of liquid formulation of UDCA prepared according to Example IX. […] Cmax is shown. Five human subjects were provided with dosage forms prepared according to this Example. The results are shown in Tables 5A and 5B and rendered graphically in FIGS. 3 and 4.

[4] = human, oral, Nagamatsu et al. (1997), cited from earlier work
[5] = oral, 200 mg UDCA solution of this invention

C[C@H](CCC(=O)O)[C@H]1CC[C@H]2[C@@H]3[C@@H](O)C[C@@H]4C[C@H](O)CC[C@]4(C)[C@H]3CC[C@]12C [UDCA, ursodeoxycholic acid (3α-7β-dihydroxy-5β-cholanic acid)] showed a concentration at 0.25 h ([1]; male, human, plasma, po, 200 mg, 200 mg UDCA solution of this invention, 0.25 h, three men) of 8430 ± 1690 ng/mL, a concentration at 1 h ([1]; male, human, plasma, po, 200 mg, 200 mg UDCA solution of this invention, 1 h, three men) of 1150 ± 470 ng/mL and a concentration at 1.5 h ([1]; male, human, plasma, po, 200 mg, 200 mg UDCA solution of this invention, 1.5 h, three men) of 320 ± 110 ng/mL. For the same compound, the concentration at 0.5 h ([1]; male, human, plasma, po, 200 mg, oral, 200 mg UDCA solution of this invention, 0.5 h, three men, read-out: Plasma concentration, mean) was 6550 ± 1050 ng/mL, the concentration at 0.5 h ([1]; male, human, plasma, po, 200 mg, oral, 200 mg UDCA solution of this invention, 0.5 h, read-out: Plasma concentration, individual men #1-#3) was 4450 ng/mL and the concentration at 2 h ([1]; male, human, plasma, po, 200 mg, oral, 200 mg UDCA solution of this invention, 2 h, three men, read-out: Plasma concentration, mean) was 190 ± 30 ng/mL. For the same compound, the concentration at 2 h ([1]; male, human, plasma, po, 200 mg, oral, 200 mg UDCA solution of this invention, 2 h, read-out: Plasma concentration, individual men #1-#3) was 235 ng/mL, the concentration at 3 h ([1]; male, human, plasma, po, 200 mg, oral, 200 mg UDCA solution of this invention, 3 h, three men, read-out: Plasma concentration, mean) was 170 ± 40 ng/mL and the concentration at 3 h ([1]; male, human, plasma, po, 200 mg, oral, 200 mg UDCA solution of this invention, 3 h, read-out: Plasma concentration, individual men #1-#3) was 124 ng/mL. It also gave an AUC ([1]; male, human, plasma, po, 200 mg, oral, 200 mg UDCA solution of this invention, three men, read-out: AUC, mean) of 5460 ± 660 ng·h/mL, an AUC ([1]; male, human, plasma, po, 200 mg, oral, 200 mg UDCA solution of this invention, read-out: AUC, individual men #1-#3) of 4320 ng·h/mL and a Tmax ([1]; male, human, plasma, po, 200 mg, oral, 200 mg UDCA solution of this invention, read-out: Tmax, individual men #1-#3) of 15 min. For the same compound, the Cmax ([1]; male, human, serum, po, 200 mg, oral, 200 mg UDCA solution of this invention, three men, read-out: Cmax, mean) was 8430 ± 1690 ng/mL, the Tmax ([1]; male, human, serum, po, 200 mg, oral, 200 mg UDCA solution of this invention, three men, read-out: Tmax, mean) was 15 min and the “AUC, individual men #1-#3” value [1, 5] was 6600 ng·h/mL and 5470 ng·h/mL. For the same compound, the “Cmax, individual men #1-#3” value [1, 5] was 5210 ng/mL and 10920 ng/mL and 9160 ng/mL, the “Plasma concentration, individual men #1-#3” value (“Plasma concentration” for short) ([1]; oral, 200 mg UDCA solution of this invention, 0.25 h) was 5120.2 ng/mL and 10917.1 ng/mL and 9159 ng/mL and the “Plasma concentration” value ([1]; oral, 200 mg UDCA solution of this invention, 0.5 h) was 7743.2 ng/mL and 7439.5 ng/mL. The “Plasma concentration” value ([1]; oral, 200 mg UDCA solution of this invention, 1 h) was 1692.1 ng/mL and 1546 ng/mL and 216.3 ng/mL, the “Plasma concentration” value ([1]; oral, 200 mg UDCA solution of this invention, 1.5 h) was 525.6 ng/mL and 275.9 ng/mL and 168 ng/mL and the “Plasma concentration” value ([1]; oral, 200 mg UDCA solution of this invention, 2 h) was 217.6 ng/mL and 122.7 ng/mL. For the same compound, the “Plasma concentration” value ([1]; oral, 200 mg UDCA solution of this invention, 3 h) was 207.4 ng/mL, the “Cmax compared with enteric coated sodium salt of UDCA preparations” value ([1]; oral, 200 mg, men) was “at least two times higher” and the “Cmax compared with regular UDCA tablet preparations” value ([1]; oral, 200 mg, men) was “four times higher”. For the same compound, the “Tmax compared with the fastest Tmax previously known” value ([1]; oral, 200 mg, men) was “at least three times faster”, the “solubility in the gastric juices and in aqueous hydrochloric acid solution” value [2] was “especially insoluble” and the “solubility in the gastric pH range” value [2] was “no longer soluble”. For the same compound, the solubility in water [2] was “practically insoluble”, the “UDCA level, Average” value ([3]; Table 5A: human, oral liquid solution containing 600 mg UDCA per day, 0 min) was 0.618 and the “UDCA level, Average” value ([3]; Table 5A: human, oral liquid solution containing 600 mg UDCA per day, 5 min) was 4.578. The “UDCA level, Average” value ([3]; Table 5A: human, oral liquid solution containing 600 mg UDCA per day, 15 min) was 20.394, the “UDCA level, Average” value ([3]; Table 5A: human, oral liquid solution containing 600 mg UDCA per day, 60 min) was 10.202 and the “UDCA level, Average” value ([3]; Table 5A: human, oral liquid solution containing 600 mg UDCA per day, 120 min) was 2.168. The “UDCA level, Average” value ([3]; Table 5A: human, oral liquid solution containing 600 mg UDCA per day, 240 min) was 0.772, the “UDCA level, Average” value ([3]; Table 5B: human, oral syrup containing 600 mg UDCA per day, 0 min) was 0.398 and the “UDCA level, Average” value ([3]; Table 5B: human, oral syrup containing 600 mg UDCA per day, 5 min) was 1.976. The “UDCA level, Average” value ([3]; Table 5B: human, oral syrup containing 600 mg UDCA per day, 15 min) was 7.144, the “UDCA level, Average” value ([3]; Table 5B: human, oral syrup containing 600 mg UDCA per day, 60 min) was 15.000 and the “UDCA level, Average” value ([3]; Table 5B: human, oral syrup containing 600 mg UDCA per day, 120 min) was 4.820. The “UDCA level, Average” value ([3]; Table 5B: human, oral syrup containing 600 mg UDCA per day, 240 min) was 1.258, the “Cmax (M ± S.E.)” value ([4]; 200 mg) was 1900 ± 250 ng/mL and the “Tmax (M ± S.E.)” value ([4]; 200 mg) was 90 ± 24 min. For the same compound, the “Cmax (M ± S.E.)” value ([4]; 400 mg) was 7090 ± 1430 ng/mL and the “Tmax (M ± S.E.)” value ([4]; 400 mg) was 48 ± 12 min.
